Reference: US20240368115A1, “REGULATOR CONTAINING TRICYCLIC DERIVATIVE, PREPARATION METHOD THEREFOR AND APPLICATION THEREOF” (SHUJING BIOPHARMA CO., LTD, priority 2021, published 2024)

Tests used:
Format in all cases: cell-based
[1] = target: 5-HT2A receptor (Homo sapiens, UniProt P28223); assay: Calcium flux test for 5-HT2A receptor; settings: CHO cell strain stably expressing 5-HT2A receptor; for IC50: calcium flux, antagonism of serotonin; for 5-HT2A Max Inh %: positive control ketanserin 10^−7 M
Sequence of 5-HT2A receptor (P28223 whole entry): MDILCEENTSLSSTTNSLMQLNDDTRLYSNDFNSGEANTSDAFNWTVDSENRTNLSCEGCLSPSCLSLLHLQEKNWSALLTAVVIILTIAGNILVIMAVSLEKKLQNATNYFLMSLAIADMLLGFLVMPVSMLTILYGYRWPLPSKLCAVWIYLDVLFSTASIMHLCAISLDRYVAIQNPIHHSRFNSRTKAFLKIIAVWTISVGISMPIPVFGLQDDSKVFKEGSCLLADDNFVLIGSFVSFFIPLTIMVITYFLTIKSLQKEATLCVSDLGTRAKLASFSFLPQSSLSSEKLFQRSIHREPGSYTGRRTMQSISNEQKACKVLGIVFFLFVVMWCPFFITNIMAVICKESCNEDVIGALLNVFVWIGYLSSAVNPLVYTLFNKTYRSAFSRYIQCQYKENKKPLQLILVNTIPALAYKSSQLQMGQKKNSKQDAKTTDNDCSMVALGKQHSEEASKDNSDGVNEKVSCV
Procedure: • Fluo-4 calcium flux detection kit was purchased from Invitrogen; a CHO cell strain stably expressing 5-HT2A receptor was purchased from PerkinElmer; serotonin was purchased from Sigma; ketanserin was purchased from Targetmol; polylysine-coated 384-well plates and 384-well compound plates were purchased from Greiner Bio-One. Molecular Device FLIPR, Agilent Bravo liquid workstation, and Countstar BioTech cell counter.
• (1) The cryopreserved cells were rapidly thawed in a water bath at 37° C., and the cells were resuspended in a plating medium. The cryopreservation solution was removed by centrifugation at 200×g. The pellet was resuspended in an appropriate amount of plating medium, 20 μL of cell suspension was counted using a cell counter, and the cell density was diluted to 1×10^6 cells/mL. • (2) 20 μL of cell suspension was added to a polylysine-coated 384-well plate (2×10^4 cells/well). • (3) The cell plate was incubated in a 37° C./5% CO2 incubator for 16-20 h.
• (1) The cell plate was taken out from the incubator and centrifuged at 100×g to remove the medium. 20 μL of experimental buffer was added, and then 20 μL of 2× fluorescent probe solution was added. […] The cell plate and agonist positive compound plate were placed into the FLIPR instrument, the detection program was run, 10 μL of the diluted compound was transferred from the agonist compound plate to the cell plate, and the fluorescence signal was read. […] The cell plate and test compound plate were placed in the FLIPR instrument, the detection program was run, and 10 μL of the diluted compound was transferred from the test compound plate to the cell plate. […] The test compound plate was then taken out, and the agonist positive compound plate with 6×EC50 concentration was placed.
Inhibition rate (Inhibition %)=(negative control reading value−compound reading value)/(negative control reading value−positive control reading value)×100%

[2] = target: T1, D2L receptor (Homo sapiens, UniProt P14416); assay: D2L receptor cAMP agonist test; settings: HEK293 cell strain stably expressing D2L receptor; for EC50: cAMP, forskolin 0.5 μM; for D2L Max Act %: positive control dopamine 1 μM
T1 construct: expressed in transfected cells
T1 sequence (P14416 whole entry): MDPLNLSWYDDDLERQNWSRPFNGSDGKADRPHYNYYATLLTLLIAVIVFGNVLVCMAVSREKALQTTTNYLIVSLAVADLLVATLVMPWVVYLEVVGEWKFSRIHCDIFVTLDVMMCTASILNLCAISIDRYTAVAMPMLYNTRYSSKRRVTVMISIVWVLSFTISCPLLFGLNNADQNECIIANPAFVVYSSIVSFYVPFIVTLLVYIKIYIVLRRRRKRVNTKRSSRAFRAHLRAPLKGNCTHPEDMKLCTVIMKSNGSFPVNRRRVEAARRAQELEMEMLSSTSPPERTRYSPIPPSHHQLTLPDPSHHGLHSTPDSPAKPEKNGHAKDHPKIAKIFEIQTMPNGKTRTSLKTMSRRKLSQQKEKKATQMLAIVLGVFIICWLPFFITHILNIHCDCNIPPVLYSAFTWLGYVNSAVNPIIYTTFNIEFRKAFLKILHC
Procedure: (§1) • cAMP detection kit was purchased from Cisbio; an HEK293 cell strain stably expressing D2L receptor was constructed by Shanghai Shujing Biopharma Co., Ltd.; dopamine, forskolin, and IBMX were purchased from Sigma; ProxiPlate-384 well plates were purchased from PerkinElmer; HBSS was purchased from Thermo Fisher Scientific.
• (1) The cryopreserved cells were thawed in a water bath at 37° C., the cell suspension was resuspended in HBSS buffer, and the mixed solution was centrifuged at 750 rpm for 5 min to remove the medium. The pellet was resuspended in an appropriate amount of experimental buffer, and an appropriate amount of cell suspension was diluted to 0.4×10^6 cells/mL. • (2) 5 μL of cell suspension was added to a ProxiPlate-384 well plate (2×10^3 cells/well), and the plate was centrifuged at 1000 rpm for 1 min. • (3) Test compounds were serially diluted in an experimental buffer, and 5 μL of the mixed solution was transferred to the reaction plate with Bravo.

[3] = target: T2, D2S receptor (Homo sapiens, UniProt P14416); assay: D2S receptor cAMP agonist test; settings: HEK293 cell strain stably expressing D2S receptor; for EC50: cAMP, forskolin 5×10^−7 M; for D2S Max Act %: positive control dopamine 1×10^−7 M
T2 construct: expressed in transfected cells
T2 sequence (P14416 1-414 isoform P14416-2): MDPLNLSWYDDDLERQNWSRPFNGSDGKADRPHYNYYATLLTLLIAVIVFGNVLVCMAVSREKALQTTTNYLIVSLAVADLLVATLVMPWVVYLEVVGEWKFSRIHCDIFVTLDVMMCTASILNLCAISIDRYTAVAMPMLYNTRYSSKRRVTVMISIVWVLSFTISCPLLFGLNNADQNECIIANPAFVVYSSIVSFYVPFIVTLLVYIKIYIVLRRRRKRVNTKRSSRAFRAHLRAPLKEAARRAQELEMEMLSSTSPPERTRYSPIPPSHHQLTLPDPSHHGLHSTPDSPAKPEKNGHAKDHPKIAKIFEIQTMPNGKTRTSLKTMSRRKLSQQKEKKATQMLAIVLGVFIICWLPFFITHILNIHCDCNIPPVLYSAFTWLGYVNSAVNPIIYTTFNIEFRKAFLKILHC
Description: as §1, with “cAMP” for “• cAMP”, “D2S” for “D2L”
(§2) • (1) The cultured cells were digested with trypsin, and the cell suspension was washed with HBSS buffer after the digestion was terminated. The medium was removed by centrifugation at 200×g. The pellet was resuspended in an appropriate amount of experimental buffer, and 20 μL of cell suspension was counted using a cell counter and diluted to 0.6×10^6 cells/mL. • (2) 5 μL of cell suspension was added to a ProxiPlate-384 well plate (3×10^3 cells/well). • (3) Test compounds were serially diluted in an experimental buffer, and 5 μL of the mixed solution was transferred to the reaction plate with Bravo.

[4] = target: T3, 5-HT1A receptor (Homo sapiens, UniProt P08908); assay: 5-HT1A receptor cAMP agonist test; settings: HEK293 cell strain stably expressing 5-HT1A receptor; for EC50: cAMP, forskolin 2.5×10^−7 M; for 5-HT1A Max Act %: positive control serotonin 10^−6 M
T3 construct: expressed in transfected cells
T3 sequence (P08908 1-422): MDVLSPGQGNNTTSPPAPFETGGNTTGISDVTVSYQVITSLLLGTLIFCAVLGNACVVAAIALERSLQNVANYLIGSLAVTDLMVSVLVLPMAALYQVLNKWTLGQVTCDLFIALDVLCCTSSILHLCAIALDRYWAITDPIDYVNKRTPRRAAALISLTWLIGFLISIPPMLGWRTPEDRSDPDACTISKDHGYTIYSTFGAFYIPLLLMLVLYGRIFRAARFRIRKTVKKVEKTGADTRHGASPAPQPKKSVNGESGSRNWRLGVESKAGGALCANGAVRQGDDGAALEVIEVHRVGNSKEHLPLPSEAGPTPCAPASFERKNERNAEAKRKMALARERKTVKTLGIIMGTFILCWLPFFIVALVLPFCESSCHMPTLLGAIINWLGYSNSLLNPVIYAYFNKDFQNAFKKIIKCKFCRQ
Description: as §1, with “5-HT1A” for “D2L”, “serotonin,” for “dopamine,”
as §2, with “0.4×10^6” for “0.6×10^6”, “(2×10^3” for “(3×10^3”

SMILES | IC50 [1] [nM] | 5-HT2A Max Inh % [1] [%] | EC50 [2] [nM] | D2L Max Act % [2] [%] | EC50 [3] [nM] | D2S Max Act % [3] [%] | EC50 [4] [nM] | 5-HT1A Max Act % [4] [%]
O=C1Nc2cc(OCCCCN3CCN(c4cccc5ccsc45)CC3)ccc2C2CC12 (stereo not drawn) [Example 48, 5-(4-(4-(Benzo[b]thiophen-7-yl)piperazin-1-yl)butoxy)-1,1a,3,7b-tetrahydro-2H-cyclopropa[c]quinolin-2-one] | 2410 | 100.5 | 0.49 | 49.0 | 0.89 | 114.8 | 366 | 55.2
O=C1Nc2cc(OCCCCN3CCN(c4cccc5c4CCC5)CC3)ccc2C2CC12 (single isomer, unassigned) [Example 43-P1] | 853 | 100.7 | 0.9 | 37.9 | 1.3 | 123.1 | 194 | 68.3
O=C1Nc2cc(OCCCCN3CCN(c4cccc(Cl)c4O)CC3)ccc2C2CC12 (stereo not drawn) [Example 39, 5-(4-(4-(3-Chloro-2-hydroxyphenyl)piperazin-1-yl)butoxy)-1,1a,3,7b-tetrahydro-2H-cyclopropa[c]quinolin-2-one] | 2930 | 94.2 |  |  |  |  |  | 
O=C1Nc2cc(OCCCCN3CCN(c4cccc5[nH]ccc45)CC3)ccc2C2CC12 (stereo not drawn) [Example 52, 5-(4-(4-(1H-Indol-4-yl)piperazin-1-yl)butoxy)-1,1a,3,7b-tetrahydro-2H-cyclopropa[c]quinolin-2-one] | 1590 | 99.9 | 0.31 | 65.3 |  |  |  | 
O=C1Nc2cc(OCCCCN3CCN(c4cccc5c4OCC5)CC3)ccc2C2CC12 (stereo not drawn) [Example 44, 5-(4-(4-(2,3-Dihydrobenzofuran-7-yl)piperazin-1-yl)butoxy)-1,1a,3,7b-tetrahydro-2H-cyclopropa[c]quinolin-2-one] | 260 | 99.7 | 0.37 | 44.7 | 0.93 | 91.0 | 11.2 | 58.9
O=C1Nc2cc(OCCCCN3CCN(c4cccc5c4OCC5)CC3)ccc2C2CC12 (single isomer, unassigned) [Example 44-P2] | 290 | 99.7 | 0.22 | 53.9 | 0.92 | 89.1 | 7.05 | 48.0
O=C1Nc2cc(OCCCCN3CCN(c4cccc5c4CCC5)CC3)ccc2C2CC12 (single isomer, unassigned) [Example 43-P2] | 1130 | 96.6 | 0.25 | 35.7 | 0.92 | 125.3 | 92.4 | 60.6
O=C1Nc2cc(OCCCCN3CCN(c4cccc5c4OCC5)CC3)ccc2C2CC12 (single isomer, unassigned) [Example 44-P1] | 192 | 99.6 | 0.26 | 45.9 | 0.98 | 96.8 | 12.7 | 49.5
O=C1Nc2cc(OCCCCN3CCN(c4cccc(O)c4Cl)CC3)ccc2C2CC12 (stereo not drawn) [Example 38, 5-(4-(4-(2-Chloro-3-hydroxyphenyl)piperazin-1-yl)butoxy)-1,1a,3,7b-tetrahydro-2H-cyclopropa[c]quinolin-2-one] | 4850 | 98.1 | 1.39 | 32.3 | 0.88 | 92.4 |  | 
O=C1Nc2cc(OCCCCN3CCN(c4ccc(Cl)s4)CC3)ccc2C2CC12 (stereo not drawn) [Example 51] | 2530 | 99.8 | 1.53 | 82.6 | 0.76 | 111.1 | 73.4 | 79.4
O=C1Nc2cc(OCCCCN3CCN(c4cccc5c4CCC5)CC3)ccc2C2CC12 (stereo not drawn) [Example 43, 5-(4-(4-(2,3-Dihydro-1H-inden-4-yl)piperazin-1-yl)butoxy)-1,1a,3,7b-tetrahydro-2H-cyclopropa[c]quinolin-2-one] | 971 | 100.3 | 0.3 | 42.8 | 0.92 | 134.9 | 158 | 67.7
O=C1Nc2cc(OCCCCN3CCN(c4cccc5c4CC(F)(F)C5=O)CC3)ccc2C2CC12 (stereo not drawn) [Example 47, 5-(4-(4-(2,2-difluoro-1-one-2,3-dihydro-1H-inden-4-yl)piperazin-1-yl)butoxy)-1,1a,3,7b-tetrahydro-2H-cyclopropa[c]quinolin-2-one] | 268 | 96.0 | 0.84 | 35.9 | 0.97 | 102.9 | 207 | 75.8
